{"source": "patent US9944752B2", "about": "“Block copolymers for stable micelles” (Intezyne Technologies, Inc., priority 2012, dated 2018)", "key": {"[1]": {"experiment": "Rat pharmacokinetics of crosslinked cabizataxel micelles", "parameters": "species or system Fisher rats", "conditions": "Fisher, in vivo, iv, 5 mg/kg", "text": "The delivery vehicle for drug administration was isotonic saline."}, "[2]": {"parameters": "species or system Fisher rats", "conditions": "Fisher, rat, in vivo, iv, 10 mg/kg", "experimental": "The delivery vehicle for drug administration was isotonic saline. […] Samples were analyzed on a Waters Alliance 2695 equipped with a 2475 fluorescence detector (Ex=470 nm; Em=580). A 5 μL sample injection was made onto a Waters 4 μm Nova Pak C18 (3.9×150 mm) at 30° C. with a flow rate of 0.750 mL per minute of 10 mM phosphate buffer (pH=1.4), methanol and acetonitrile (gradient from 70/10/20 to 40/10/50 for buffer/methanol/acetonitrile was made over eight minutes). Analyte eluted at 5.9 minutes under these conditions, was normalized to the internal standard, and quantitated using a standard curve comprised of seven standards."}, "A549 lung cancer cells": {"system": "A549 lung cancer cells", "experiment": "In-vitro cytotoxicity of aminopterin formulations (cell titer-glo)", "type": "cell-based", "conditions": "Homo sapiens, A549, 72 h, read-out: IC50 (cell viability inhibited by 50%)", "experimental": "(§1) Cells originally purchased from ATCC (A549, Panc-1, OVCAR3, and BXPC-3) were seeded in 96 well tissue culture plates to be 50% confluent by 24 hours. Cells were incubated at 37° C. with 5.0% CO2. Cells were treated with escalating doses of free aminopterin, crosslinked aminopterin formulation, uncrosslinked aminopterin formulation, and non drug-loaded micelle formulations 24 hours after plate seeding. Free aminopterin was dissolved in DMSO and administered to cells with a total volume of DMSO equal to or less than 0.0025%. Micelle formulations were re-suspended in biology grade water. Dilutions were done in deep well plates with cell media and water or DMSO (for free aminopterin only) equalizing displaced volume. Incubation media was aspirated from the 96 well plates and 100 μl of each dilution was added to the wells in triplicate and incubated over 72 hours at 37° C. with 5.0% CO2. Crosslinked and uncrosslinked non drug-loaded micelle formulations were administered at the four highest doses and were calculated at comparative mg/ml concentrations to drug-loaded micelle concentrations of delivery vehicle. […] Plates were briefly shaken to mix and luminescence readings were read on a plate reader. Luminescence reading for triplicate doses are averaged and divided by average luminescence readings from untreated cells on the same plate to calculate the % of viable cells per dose. […]"}, "[3]": {"system": "PANC-1 pancreatic (folate receptor +) cancer cells", "experiment": "In-vitro cytotoxicity of aminopterin formulations (cell titer-glo)", "type": "cell-based", "conditions": "Homo sapiens, PANC-1, 72 h, read-out: IC50 (cell viability inhibited by 50%)", "experimental": "as §1"}}, "data": [{"smiles": "CO[C@H]1C(=O)[C@]2(C)[C@@H](OC)C[C@H]3OC[C@@]3(OC(C)=O)[C@H]2[C@H](OC(=O)c2ccccc2)[C@]2(O)C[C@H](OC(=O)[C@H](O)[C@@H](NC(=O)OC(C)(C)C)c3ccccc3)C(C)=C1C2(C)C", "note": "[free cabizataxel, cabazitaxel]", "values": [{"measurement": "Exposure of cabazitaxel to the plasma compartment over 15 minutes", "setting": "[1]", "result": 200, "unit": "ng·h/mL"}]}, {"smiles": "COc1cccc2c1C(=O)c1c(O)c3c(c(O)c1C2=O)C[C@@](O)(C(C)=O)C[C@@H]3O[C@H]1C[C@H](N)[C@H](O)[C@H](C)O1", "note": "[free daunorubicin, daunorubicin]", "values": [{"measurement": "CMax", "setting": "[2]", "result": 3.3, "unit": "µg/mL"}, {"measurement": "Half-life", "setting": "[2]", "result": 3.3, "unit": "h"}]}, {"smiles": "Nc1nc(N)c2nc(CNc3ccc(C(=O)N[C@@H](CCC(=O)O)C(=O)O)cc3)cnc2n1", "note": "[Aminopterin, aminopterin]", "values": [{"measurement": "IC50", "setting": "A549 lung cancer cells", "result": "7 to 25", "unit": "nM"}, {"measurement": "IC50", "setting": "[3]", "result": "7 to 25", "unit": "nM"}]}]}
